Assay [1] deals with T1, rat central A2 adenosinergic receptors (Rattus norvegicus, UniProt P30543).
T1 construct: the striatum is removed from each of them (Bruns et al., 1986); from tissue; host or cells: rat striatum, homogenate (membrane preparation)
The assay is described as follows: Binding to adenosine A2 receptors ([3H] NECA displacement). The following applies: [3H] NECA 4 nM, n=3; for inhibition at 10 µM: 1E-5M, read-out: % displacement of the labeled ligand, A2, 1E-5M; for inhibition at 0.1 µM: 1E-7M, read-out: % displacement of the labeled ligand, A2, 1E-7M. Here is the method:
(§1) The affinity of the products of the Examples for the rat central A1 and A2 adenosinergic receptors is determined by the competitive technique using a radioactive ligand specifically bound either to the A1 receptors ([^3 H] PIA) or to the A2 receptors ([^3 H] NECA).
Method of studying the A2 receptors Membrane preparation
After decapitation of the animal, the brain is quickly removed and washed in cold isotonic solution. The two hemispheres are separated and the striatum is removed from each of them (Bruns et al., 1986), weighed and introduced into a polyallomer tube containing 10 volumes of cold homogenization buffer. The tissue is homogenized with an Ultra-Turrax for 30 seconds (3 times 10 seconds with 10-second intervals, 70% of the maximum speed). The ground material is centrifuged at 50,000 g (≈20,500 rpm) for 10 minutes at 4° C.
The residue obtained is resuspended in 10 volumes of homogenization buffer using a Vortex and homogenized with the Ultra-Turrax (5 to 10 seconds, 70% of the maximum speed).
Adenosine deaminase is then added at a rate of 1 U/ml, i.e. 1 μl/ml of homogenate, using a 10 μl Hamilton syringe. The homogenate treated in this way is shaken at room temperature for 30 minutes.
When the incubation is complete, the homogenate is centrifuged at 50,000 g (≈20,500 rpm) for 10 minutes at 4° C.
The residue is taken up with 5 volumes of cold homogenization buffer and passed through the Ultra-Turrax (2 times 10 seconds with a 10-second interval, 70% of the maximum speed) and the homogenate prepared in this way is finally frozen at -70° C. Competitive test
After the homogenate has been thawed at room temperature, 15 volumes of incubation buffer are added. The homogenate is shaken on a Vortex, passed through a Potter mill (6 to-and-fro movements, speed 6), diluted to 1/10 in incubation buffer and finally placed in a water bath thermostated at 4° C., with shaking, until the end of the experiment.
50 μl of [^3 H] NECA at 160 nM, i.e. 4 nM in the final reaction medium allowing for the 1/40 dilution, and 50 μl of the product of the Example at the concentrations considered (10^-5 M and 10^-7 M) are introduced into the reaction tubes. The reaction is initiated by the addition of 1 ml of homogenate and 900 μl of incubation buffer. The procedure is similar for all the compounds studied.
The tubes are shaken and incubated in a water bath at 25° C. for 60 minutes. When the incubation is complete, the contents of the tubes are filtered on Whatman GF/B paper. Each tube is washed twice with 2 ml of rinsing buffer and then the filters themselves are rinsed with 3 ml of this same buffer before being transferred to counting flasks.
10 ml of liquid scintillator (Ready Solv HP/b, Beckman) are added to all the flasks. These are shaken and stored in a refrigerator overnight. The radioactivity is determined in a liquid scintillation counter.
3 tests are performed for each concentration studied. The non-specific binding of the [^3 H] NECA is determined by measuring the amount of radioactivity retained on the filter in the presence of 5 μM N-ethylcarboxamidoadenosine (NECA). The value of the non-specific binding is systematically subtracted from that of the tests.
(§2) The results are expressed for each product in the form of the percentage displacement (n=3) of the labeled radioligand at concentrations of 10^-5 M and 10^-7 M.

Assay [2] deals with T2, rat central A1 adenosinergic receptors (Rattus norvegicus, UniProt P25099).
T2 construct: After the animal has been sacrificed by decapitation, the brain is quickly removed and washed in cold isotonic solution; from tissue; host or cells: rat brain, membrane preparation from the two hemispheres
T2 sequence (P25099 1-326): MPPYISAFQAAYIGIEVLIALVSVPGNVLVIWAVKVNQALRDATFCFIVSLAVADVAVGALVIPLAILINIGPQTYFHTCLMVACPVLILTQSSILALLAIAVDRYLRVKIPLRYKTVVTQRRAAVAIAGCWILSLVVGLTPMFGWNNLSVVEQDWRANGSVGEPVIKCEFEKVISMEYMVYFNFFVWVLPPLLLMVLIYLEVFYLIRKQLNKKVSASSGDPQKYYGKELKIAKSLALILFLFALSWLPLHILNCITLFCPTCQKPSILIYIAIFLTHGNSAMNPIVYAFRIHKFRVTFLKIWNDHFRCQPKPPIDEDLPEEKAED
The assay is described as follows: Binding to adenosine A1 receptors ([3H] PIA displacement). The settings on record: [3H] PIA 2.5 nM, n=3; for inhibition at 10 µM: 1E-5M, read-out: % displacement of the labeled ligand, A1, 1E-5M; for inhibition at 0.1 µM: 1E-7M, read-out: % displacement of the labeled ligand, A1, 1E-7M. Here is the method: as §1
After the animal has been sacrificed by decapitation, the brain is quickly removed and washed in cold isotonic solution. The two hemispheres are separated and weighed and each of them is introduced into a polyallomer tube containing 25 volumes of cold homogenization buffer. Homogenization is effected using an Ultra-Turrax for 30 seconds (3 times 10 seconds with 10-second intervals, 70% of the maximum speed). The ground material obtained is centrifuged at 1000 g (≈3000 rpm) for 10 minutes at 4° C.
The supernatant is centrifuged again at 48,000 g (≈20,000 rpm) for 20 minutes at 4° C.
When this step is complete, the residue is taken up with 4 volumes of homogenization buffer, resuspended using a Vortex and homogenized with the Ultra-Turrax. Adenosine deaminase is then added at a rate of 1 U/ml, i.e. 1 μl/ml of homogenate, using a 10 μl Hamilton syringe.
After this treatment, the homogenate is shaken for 30 minutes at room temperature and then centrifuged at […] (≈20,000 rpm) for 30 minutes at 4° C.
The residue obtained is resuspended in 10 volumes of homogenization buffer and passed through the Ultra-Turrax for 20 seconds (2 times 10 seconds with a 10-second interval, 70% of the maximum speed).
The homogenate prepared in this way is used for the competitive tests. It is kept at 4° C. if the studies take place the same day, or stored at -20° C. in the form of 10 ml aliquots.
After the homogenate has been thawed at room temperature, it is passed through a Potter mill (6 manual to-and-fro movements, speed 6), diluted to 2/5 in incubation buffer and placed in a water bath thermostated at 4° C., with shaking, until the end of the experiment.
50 μl of [^3 H] PIA at 100 nM, i.e. 2.5 nM in the final reaction medium allowing for the 1/40 dilution, and 50 μl of the product of the Example at the concentrations considered ([…] and 10^-7 M) are introduced into the reaction tubes. The reaction is initiated by the addition of 1 ml of homogenate and 900 μl of incubation buffer. The procedure is identical for all the […] studied.
The tubes are shaken and incubated in a water bath at 20° C. for 30 minutes. When the incubation is complete, the contents of the tubes are filtered on Whatman GF/B paper. Each tube is washed twice with 2 ml of rinsing buffer and then the filters themselves are rinsed with 3 ml of this same buffer.
The filters are then transferred to counting flasks and 10 ml of liquid scintillator (Ready Solv HP/b, Beckman) are added.
After they have been shaken, the flasks are stored in a refrigerator overnight and the radio-activity is then determined in a liquid scintillation counter.
3 tests are performed for each concentration studied. The non-specific binding of the [^3 H] PIA is assessed by measuring the amount of radioactivity retained on the filter in the presence of 10^-5 M phenylisopropyladenosine (PIA). The value of the non-specific binding is systematically subtracted from that of the tests.
as §2

The nature of assay [3]: Phenylbenzoquinone test (analgesic activity). The format is in vivo. The following applies: Mus musculus, 1 h; mice; oral, one hour before phenylbenzoquinone i.p.; 5 minutes observation; read-out: Phenylbenzoquinone test 50% inhibitory dose. On the procedure: 2. Phenylbenzoquinone test
The intraperitoneal injection of phenylbenzoquinone causes twisting and stretching movements in mice. Analgesics prevent or reduce this syndrome, which can be considered as the exteriorization of diffuse abdominal pain.
A 0.02% solution of phenylbenzoquinone in water is administered in a volume of 1 ml/100 g.
The products of the Examples are administered orally one hour before the injection of phenylbenzoquinone.
The stretching and twisting movements are counted for each mouse over an observation period of 5 minutes.

T1 sequence (P30543 whole entry): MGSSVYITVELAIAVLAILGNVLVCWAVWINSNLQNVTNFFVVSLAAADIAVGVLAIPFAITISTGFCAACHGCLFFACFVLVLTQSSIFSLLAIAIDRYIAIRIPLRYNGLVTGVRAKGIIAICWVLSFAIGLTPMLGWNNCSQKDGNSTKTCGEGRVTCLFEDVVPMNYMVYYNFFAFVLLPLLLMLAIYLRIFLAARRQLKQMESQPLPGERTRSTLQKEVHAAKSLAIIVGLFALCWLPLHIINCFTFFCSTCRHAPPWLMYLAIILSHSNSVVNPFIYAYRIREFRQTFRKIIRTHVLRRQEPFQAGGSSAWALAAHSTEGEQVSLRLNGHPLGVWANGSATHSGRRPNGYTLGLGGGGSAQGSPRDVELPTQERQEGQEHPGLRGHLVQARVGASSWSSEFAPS

Turning to `Cc1ccc(Cn2cc(CCNc3ncnc4c3ncn4[C@@H]3O[C@H](C(=O)NC4CC4)[C@@H](O)[C@H]3O)c3ccccc32)cc1C` [Example 67, β-D-Ribofuranuronamido-N-cyclopropyl-1-deoxy-1-[6-[[2-[1-(3,4-dimethylbenzyl)indol-3-yl]ethyl]amino]-9H-purin-9-yl]], in assay [1], the inhibition at 10 µM was 83% and the inhibition at 0.1 µM turned out to be 13%. In addition, in assay [2], the inhibition at 10 µM turned out to be 96% and the inhibition at 0.1 µM turned out to be 29%. In assay [3], the ED50 came to 3 mg/kg.
`Cc1ccc(C)c(Cn2cc(CCNc3ncnc4c3ncn4[C@@H]3O[C@H](C(=O)NC4CC4)[C@@H](O)[C@H]3O)c3ccccc32)c1` [Example 68, β-D-Ribofuranuronamido-N-cyclopropyl-1-deoxy-1-[6-[[2-[1-(2,5-dimethylbenzyl)indol-3-yl]ethyl]amino]-9H-purin-9-yl]]: in assay [1], the inhibition at 10 µM turned out to be 84% and the inhibition at 0.1 µM was 9%. In assay [2], the inhibition at 10 µM turned out to be 93% and the inhibition at 0.1 µM worked out at 26%. The ED50 in assay [3] was 2.4 mg/kg.
As to `O=C(NC1CC1)[C@H]1O[C@@H](n2cnc3c(NCCc4cn(CCN5CCCCC5)c5ccccc45)ncnc32)[C@H](O)[C@@H]1O` [Example 71 (citrate), β-D-ribofuranuronamido-N-cyclopropyl-1-deoxy-1-[6-[[2-[1-(2-N-piperidinoethyl)indol-3-yl]ethyl]amino]-9H-purin-9-yl]citrate], in assay [1], the inhibition at 10 µM came out at 96% and the inhibition at 0.1 µM was determined as 44%. In addition, in assay [2], the inhibition at 10 µM was determined as 99% and the inhibition at 0.1 µM was found to be 91%. Moreover, the ED50 in assay [3] was determined as 7.3 mg/kg.
`Cc1ccc(C)c(Cn2cc(CCNc3ncnc4c3ncn4[C@@H]3O[C@H](C(=O)NC4CC4)[C@@H](O)[C@H]3O)c3cc(C)ccc32)c1` [Example 85, β-D-Ribofuranuronamido-N-cyclopropyl-1-deoxy-1-[6-[[2-[1-(2,5-dimethylbenzyl)-5-methylindol-3-yl]ethyl]amino]-9H-purin-9-yl]]: in assay [1], the inhibition at 10 µM is 71% and the inhibition at 0.1 µM was 3%. In assay [2], the inhibition at 10 µM was 100% and the inhibition at 0.1 µM stood at 50%. In assay [3], the ED50 is 0.9 mg/kg.
As to `COc1ccc2c(c1)c(CCNc1ncnc3c1ncn3[C@@H]1O[C@H](C(=O)NC3CC3)[C@@H](O)[C@H]1O)cn2Cc1cc(C)ccc1C` [Example 86, β-D-Ribofuranuronamido-N-cyclopropyl-1-deoxy-1-[6-[[2-[1-(2,5-dimethylbenzyl)-5-methoxyindol-3-yl]ethyl]amino]-9H-purin-9-yl]], in assay [1], the inhibition at 10 µM was 91% and the inhibition at 0.1 µM came out at 17%. In assay [2], the inhibition at 10 µM was 100% and the inhibition at 0.1 µM came to 16%. Further, in assay [3], the ED50 was roughly 60 mg/kg.
`Cc1ccc(C)c(Cn2c(C)c(CCNc3ncnc4c3ncn4[C@@H]3O[C@H](C(=O)NC4CC4)[C@@H](O)[C@H]3O)c3ccccc32)c1` [Example 87, β-D-Ribofuranuronamido-N-cyclopropyl-1-deoxy-1-[6-[[2-[1-(2,5-dimethylbenzyl)-2-methylindol-3-yl]ethyl]amino]-9H-purin-9-yl]]: in assay [1], the inhibition at 10 µM turned out to be 60% and the inhibition at 0.1 µM is 7%. Moreover, in assay [2], the inhibition at 10 µM was found to be 56% and the inhibition at 0.1 µM stood at 5%. Moreover, in assay [3], the ED50 is 1.2 mg/kg.
On to `Cc1ccc(C)c(Cn2cc(CC(C)Nc3ncnc4c3ncn4[C@@H]3O[C@H](C(=O)NC4CC4)[C@@H](O)[C@H]3O)c3ccccc32)c1` (stereo partly drawn) [Example 92, β-D-Ribofuranuronamido-N-cyclopropyl-1-deoxy-1-[6-[[1-[1-(2,5-dimethylbenzyl)indol-3-yl]propan-2-yl]amino]-9H-purin-9-yl]], for which, in assay [1], the inhibition at 10 µM came out at 84% and the inhibition at 0.1 µM is 9%. Also, in assay [2], the inhibition at 10 µM came to 96% and the inhibition at 0.1 µM was 21%. Further, in assay [3], the ED50 is 3.6 mg/kg.

The values above are taken from patent publication US5480983A, “Adenosine derivatives, preparation methods and pharmaceutical compositions containing them” (Laboratoires UPSA, priority 1992, dated 1996).
